Laboratory results: paper PMC10652874, “Investigation into the mechanism of action of the antimicrobial peptide epilancin 15X” (Frontiers in Microbiology, 2023)

Columns and labels:
S. carnosus TM300 [1] = assay: MIC determination in 96-well microtiter plate; format: cell-based, Staphylococcus carnosus; conditions: BHI, 37°C, 10^5 CFU/mL, OD600 after 18 h
Method: MIC determination was performed in a 96-well microtiter plate as described previously ([Wu et al., 2019]). Sensitive bacterial culture was grown in the appropriate medium (BHI for S. carnosus; LB for B. subtilis) at 37°C overnight. The culture was diluted to 10^5 CFU/mL in medium in each well. Epilancin 15X or its analog was dissolved in water and serially diluted to obtain final concentrations of 20, 10, 5, 2.5, 1.25, 0.625, 0.3125, 0.156, 0.078, 0.039, 0.019, and 0.009 μM. OD600 readings were obtained after 18 h using a Synergy H4 Hybrid Multi-Mode Microplate Reader (BioTeK). Cell-free untreated medium, and untreated cell culture were used as negative controls. The MIC of nisin against B. subtilis BSF2470 was determined following the same methods.

S. carnosus TM300 [2] = assay: Membrane permeability study with propidium iodide (flow cytometry); format: cell-based, Staphylococcus carnosus; conditions: S. carnosus TM300, 20 min exposure, 0.5x, 1x, 4x MIC, n = 3
Method: Cultures of S. carnosus TM300 and B. subtilis BSF2470 were grown to OD600 1.0 and diluted to OD600 0.1 in fresh BHI or LB medium, respectively. The culture was then combined with a final concentration of 25 μM PI (ThermoFisher P3566), 1 mM HEPES, and 1 mM glucose. […] Another two tubes were prepared without antibiotic treatment as controls. The culture was analyzed with a BD Biosciences LSR II flow cytometer for S. carnosus and a BD Biosciences LSRFortessa for B. subtilis using excitation at 488 nm with an argon laser and measurement of emission through a band-pass filter at 695/40 nm. A minimum of 30,000 events were detected for each sample. The experiment was repeated three times, and the mean PI uptake value was determined. The results were calibrated such that the mean PI uptake from the 4x MIC nisin-treated cell culture was set as 100% PI uptake.

S. carnosus TM300 [3] = assay: Membrane potential study with DiOC2 (flow cytometry); format: cell-based, Staphylococcus carnosus; conditions: S. carnosus TM300, 20 min, 0.5x, 1x, 4x MIC, n = 3
Method: Cultures of S. carnosus TM300 were grown to OD600 1.0 and diluted to OD600 0.1 in fresh BHI medium. The culture was then combined with 30 μM 3,3′-diethyloxacarbocyanine (DiOC2, ThermoFisher D14730) and incubated for 20 min. […] Another two tubes were prepared without antibiotic treatment as controls. The culture was analyzed with a BD Biosciences LSR II flow cytometer using excitation at 488 nm with an argon laser and measurement of emission through a band-pass filter at 616/20 nm. A minimum of 30,000 events were detected for each sample. The experiment was repeated three times, and the mean red/green fluorescence ratio was determined.

[4] = system: DNA biosynthesis in S. carnosus TM300; assay: Macromolecular synthesis assay: 14C-thymidine incorporation into DNA; format: cell-based, Staphylococcus carnosus; conditions: S. carnosus TM300, 2× MIC, three independent experiments
Method: Radiolabel incorporation experiments were carried out similarly as previously described but using S. carnosus ([Wu et al., 2019]). The OD600 of parallel nonradioactive cultures was measured at each time point to normalize the measured radioactivity and minimize effects due to cell death and growth inhibition. The radiolabeled reagents and their corresponding positive and negative antibiotic controls were as follows. […] All experiments were conducted independently three times.
Figure S3. Thre e in de pen den t ex perime nts of incorporation of (A) 14C- acetic acid into fatty acids, (B) 14C- thymi din e into D NA, (C) 3H-uridi ne into RNA, (D) 14C- lab el ed ami no acids into protei n, and (E) 14C- label ed GlcNAc into cell w all in S. carnosus TM300 cells treated with vario u s antimicro bia l agents. T he p ercent i nco rpo ratio n at 0 min was measured after incubati ng the cel l cultur e with 0.8 μCi/mL radioactive precursors for 15 min. Then 0.5x, 1x, 2x, or 4x MIC epilanci n 15X and 2x MIC controls were added to the cell cultur e (t=0), and t he percent incorporation was measur ed ov er time. Positive controls a re gr een and negative controls are black (cells o nly) an d blu e (co mpo und w ith mo d e o f actio n unr elate d to th e a ssay i n que stio n). […]

B. subtilis ATCC 6633 = assay: Fluorescence and bright field (Airyscan) microscopy; format: cell-based, Bacillus subtilis
Method: Standard microscope slides coated with poly-D-lysine (R&D Systems, 34–392 − 000101) overnight were washed with water and sterilized in ethanol. Overnight bacterial culture was centrifuged at 4,500 ×g and the pellet was resuspended gently three times in fresh PBS to remove the media background. Then 20 μL of cell culture in PBS and 180 μL of PBS were loaded on each slide and incubated at room temperature for 30 min. Next, 1 mL of PBS was used to wash the slides at least five times to remove unadhered cells. A final concentration of 200 nM epilancin 15X-TAMRA in 200 μL of PBS was applied to each slide and incubated at room temperature for 30 min. PBS was used to wash the slides at least five times to wash away unbound Epilancin 15X. A final concentration of 10% formaldehyde (Thermo Scientific, PI28906) and 2.5% glutaraldehyde (Fisher Chemical, O2957–1) in PBS was applied to each slide and incubated for 30 min. Three times 1 mL of PBS was applied to wash away excess fixing solution. A drop of ProLong Glass Antifade Mountant (Invitrogen, P36982) was applied to each slide, covered with a glass coverslip (Ibidi, NC0601315), and dried overnight protected from light. All micrographs were captured using a Zeiss LSM 880 Airyscan microscope (Carl R. Woese Institute for Genomic Biology, UIUC). […]

[5] = Liposome leakage assay using flow cytometry (HaloTag / AF488 ligand); format: biochemical; conditions: 1 μM peptide, 37°C, 1 h

Epilancin 15X
MIC (S. carnosus TM300 [1]): 0.16 µM
PI uptake (membrane disruption) (S. carnosus TM300 [2]): increase
red/green fluorescence ratio of DiOC2 (membrane potential) (S. carnosus TM300 [3]): increase
DNA biosynthesis (14C-thymidine incorporation) [4]: considerably stronger effect than that observed with the respective negative controls
aggregation phenotype of cells (brightfield) (B. subtilis ATCC 6633): Aggregation and chaining of cells was observed
fluorescence signal (pore formation) ([5]; POPC-cholesterol liposomes with 0.1% lipid II): did not induce pore formation
fluorescence signal (pore formation) compared to buffer control ([5]; POPC-cholesterol liposomes without lipid II): no increase in fluorescence signal
